In test [1] the target is T1, XIAP BIR3 (Homo sapiens, UniProt P98170).
T1 construct: His-BIR3 (241-356, XIAP)
As to the kind of experiment: XIAP-BIR3/SMAC Homogeneous Time Resolved Fluorescence (HTRF) Assay. The test is classed as binding. The essentials: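 Competition HTRF between XIAP-BIR3 and SMAC; reaction 60 min at room temperature, then anti-6×His-terbium Fab detection for a further 30 min.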
(TR-FRET usually uses a lanthanide donor and a delayed reading to cut background.)

For test [2], the target named is T2, XIAP BIR2-3 (Homo sapiens, UniProt P98170, C202A/C213G).
T2 construct: His-BIR2-3 (125-356, C202A/C213G, XIAP)
As to the kind of experiment: XIAP-BIR2-3 dimeric SMAC Peptide Homogeneous Time Resolved Fluorescence (HTRF) Assay. Type of test: binding. On the procedure:
B. […] Assays were performed in black, flat-bottom, 384-well plates. […] Compounds were dissolved at 3 mM in dimethylsulfoxide (DMSO) and evaluated at eleven serially diluted concentrations. IC50 and Ki values were derived by non-linear regression analysis.

[3] abbreviates: 1 nM N-His-BIR3 (241-356, XIAP), 5 nM fluorescein labeled SMAC peptide, HTRF signal, read-out: XIAP BIR3 IC50.
The mark [4] stands for this setting: 0.5 nM N-His-BIR2-3 (125-356, C202A/C213G, XIAP), 20 nM fluorescein labeled dimeric SMAC peptide, HTRF signal, read-out: XIAP BIR2-3 IC50.

Like-named read-outs stand apart in the source and are kept apart here.

T2 sequence (P98170 125-356 C202A/C213G): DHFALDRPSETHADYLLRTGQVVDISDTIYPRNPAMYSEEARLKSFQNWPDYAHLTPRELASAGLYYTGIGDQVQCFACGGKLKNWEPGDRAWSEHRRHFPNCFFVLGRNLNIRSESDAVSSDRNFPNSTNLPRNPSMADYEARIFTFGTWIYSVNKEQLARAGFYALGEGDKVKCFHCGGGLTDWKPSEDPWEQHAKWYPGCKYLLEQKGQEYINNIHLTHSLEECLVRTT
T1 sequence (P98170 241-356): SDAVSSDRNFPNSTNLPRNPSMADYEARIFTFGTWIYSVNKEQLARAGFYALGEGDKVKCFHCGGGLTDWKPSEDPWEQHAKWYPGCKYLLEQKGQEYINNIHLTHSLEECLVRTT

The IC50 is the concentration at which inhibition is half-maximal. For `CN[C@@H](C)C(=O)N[C@H](C(=O)N1C[C@@H](c2ccc3c(c2)CN(C(=O)[C@@H](NC(=O)[C@H](C)NC)C(C)(C)C)[C@H](C(=O)N[C@@H]2CCCc4ccccc42)C3)C[C@H]1C(=O)N[C@@H](Cc1ccccc1)C(=O)Nc1cccc(C#N)c1)C(C)(C)C` [Example 59, (S)-7-((3R,5S)-5-(((S)-1-((3-Cyanophenyl)amino)-1-oxo-3-phenylpropan-2-yl)carbamoyl)-1-((S)-3,3-dimethyl-2-((S)-2-(methylamino)propanamido)butanoyl)pyrrolidin-3-yl)-2-((S)-3,3-dimethyl-2-((S)-2-(methylamino)propanamido)butanoyl)-N-((R)-1,2,3,4-tetrahydronaphthalen-1-yl)-1,2,3,4-tetrahydroisoquinoline-3-carboxamide], the IC50 in test [1] (setting [3]) was found to be 6.7 nM; in test [2] (setting [4]), 2.2 nM.

For `CN[C@@H](C)C(=O)N[C@H](C(=O)N1C[C@@H](c2ccc3c(c2)CN(C(=O)[C@@H](NC(=O)[C@H](C)NC)C(C)(C)C)[C@H](C(=O)N[C@@H]2CCCc4ccccc42)C3)C[C@H]1C(=O)N[C@@H](Cc1ccccc1)C(=O)NCCOC)C(C)(C)C` [Example 61, (S)-2-((S)-3,3-Dimethyl-2-((S)-2-(methylamino)propanamido)butanoyl)-7-((3R,5S)-1-((S)-3,3-dimethyl-2-((S)-2-(methylamino)propanamido)butanoyl)-5-(((S)-1-((2-methoxyethyl)amino)-1-oxo-3-phenylpropan-2-yl)carbamoyl)pyrrolidin-3-yl)-N-((R)-1,2,3,4-tetrahydronaphthalen-1-yl)-1,2,3,4-tetrahydroisoquinoline-3-carboxamide], the IC50 in test [1] (setting [3]) amounted to 22.1 nM; in test [2] (setting [4]) it was 3.4 nM.

Turning to `CCN(CC)C(=O)[C@H](Cc1ccccc1)NC(=O)[C@@H]1C[C@H](c2ccc3c(c2)CN(C(=O)[C@@H](NC(=O)[C@H](C)NC)C(C)(C)C)[C@H](C(=O)N[C@@H]2CCCc4ccccc42)C3)CN1C(=O)[C@@H](NC(=O)[C@H](C)NC)C(C)(C)C` [Example 62, (S)-7-((3R,5S)-5-(((S)-1-(Diethylamino)-1-oxo-3-phenylpropan-2-yl)carbamoyl)-1-((S)-3,3-dimethyl-2-((S)-2-(methylamino)propanamido)butanoyl)pyrrolidin-3-yl)-2-((S)-3,3-dimethyl-2-((S)-2-(methylamino)propanamido)butanoyl)-N-((R)-1,2,3,4-tetrahydronaphthalen-1-yl)-1,2,3,4-tetrahydroisoquinoline-3-carboxamide], the 50% inhibitory concentration (IC50) in test [1] worked out at 9.2 nM; in test [2], 1.9 nM.

For `CN[C@@H](C)C(=O)N[C@H](C(=O)N1C[C@@H](c2ccc3c(c2)CN(C(=O)[C@@H](NC(=O)[C@H](C)NC)C(C)(C)C)[C@H](C(=O)N[C@@H]2CCCc4ccccc42)C3)C[C@H]1C(=O)N[C@@H](Cc1ccccc1)C(=O)N(C1CC1)C1CC1)C(C)(C)C` [Example 63, (S)-7-((3R,5S)-5-(((S)-1-(Dicyclopropylamino)-1-oxo-3-phenylpropan-2-yl)carbamoyl)-1-((S)-3,3-dimethyl-2-((S)-2-(methylamino)propanamido)butanoyl)pyrrolidin-3-yl)-2-((S)-3,3-dimethyl-2-((S)-2-(methylamino)propanamido)butanoyl)-N-((R)-1,2,3,4-tetrahydronaphthalen-1-yl)-1,2,3,4-tetrahydroisoquinoline-3-carboxamide], the values for the IC50 in test [1] (setting [3]) and in test [2] (setting [4]) were 16.7 nM and 3 nM, respectively.

Turning to `CN[C@@H](C)C(=O)N[C@H](C(=O)N1C[C@@H](c2ccc3c(c2)CN(C(=O)[C@@H](NC(=O)[C@H](C)NC)C(C)(C)C)[C@H](C(=O)N[C@@H]2CCCc4ccccc42)C3)C[C@H]1C(=O)N[C@@H](Cc1ccccc1)C(=O)NC1CC1)C(C)(C)C` [Example 64, (S)-7-((3R,5S)-5-(((S)-1-(Cyclopropylamino)-1-oxo-3-phenylpropan-2-yl)carbamoyl)-1-((S)-3,3-dimethyl-2-((S)-2-(methylamino)propanamido)butanoyl)pyrrolidin-3-yl)-2-((S)-3,3-dimethyl-2-((S)-2-(methylamino)propanamido)butanoyl)-N-((R)-1,2,3,4-tetrahydronaphthalen-1-yl)-1,2,3,4-tetrahydroisoquinoline-3-carboxamide], the values for the IC50 in test [1] (setting [3]) and in test [2] (setting [4]) were 25.6 nM and 3.8 nM, respectively.

`CN[C@@H](C)C(=O)N[C@H](C(=O)N1C[C@@H](c2ccc3c(c2)CN(C(=O)[C@@H](NC(=O)[C@H](C)NC)C(C)(C)C)[C@H](C(=O)N[C@@H]2CCCc4ccccc42)C3)C[C@H]1C(=O)N[C@@H](Cc1ccccc1)C(=O)Nc1ccc(-n2cncn2)cc1)C(C)(C)C` [Example 65, (S)-7-((3R,5S)-5-(((S)-1-((4-(1H-1,2,4-Triazol-1-yl)phenyl)amino)-1-oxo-3-phenylpropan-2-yl)carbamoyl)-1-((S)-3,3-dimethyl-2-((S)-2-(methylamino)propanamido)butanoyl)pyrrolidin-3-yl)-2-((S)-3,3-dimethyl-2-((S)-2-(methylamino)propanamido)butanoyl)-N-((R)-1,2,3,4-tetrahydronaphthalen-1-yl)-1,2,3,4-tetrahydroisoquinoline-3-carboxamide]: the figures for the IC50 in test [1] (setting [3]) and in test [2] (setting [4]) were 5.4 nM and 1.6 nM, respectively.

As for `CN[C@@H](C)C(=O)N[C@H](C(=O)N1C[C@@H](c2ccc3c(c2)CN(C(=O)[C@@H](NC(=O)[C@H](C)NC)C(C)(C)C)[C@H](C(=O)N[C@@H]2CCCc4ccccc42)C3)C[C@H]1C(=O)N[C@@H](Cc1ccccc1)C(=O)NCCc1ccccc1)C(C)(C)C` [Example 66, (S)-2-((S)-3,3-Dimethyl-2-((S)-2-(methylamino)propanamido)butanoyl)-7-((3R,5S)-1-((S)-3,3-dimethyl-2-((S)-2-(methylamino)propanamido)butanoyl)-5-(((S)-1-oxo-1-(phenethylamino)-3-phenylpropan-2-yl)carbamoyl)pyrrolidin-3-yl)-N-((R)-1,2,3,4-tetrahydronaphthalen-1-yl)-1,2,3,4-tetrahydroisoquinoline-3-carboxamide], the IC50 in test [1] amounted to 13.3 nM; in test [2], 3.1 nM.

Consider `CN[C@@H](C)C(=O)N[C@H](C(=O)N1C[C@@H](c2ccc3c(c2)CN(C(=O)[C@@H](NC(=O)[C@H](C)NC)C(C)(C)C)[C@H](C(=O)N[C@@H]2CCCc4ccccc42)C3)C[C@H]1C(=O)N[C@@H](Cc1ccccc1)C(=O)NCc1nccs1)C(C)(C)C` [Example 67, (S)-2-((S)-3,3-Dimethyl-2-((S)-2-(methylamino)propanamido)butanoyl)-7-((3R,5S)-1-((S)-3,3-dimethyl-2-((S)-2-(methylamino)propanamido)butanoyl)-5-(((S)-1-oxo-3-phenyl-1-((thiazol-2-ylmethyl)amino)propan-2-yl)carbamoyl)pyrrolidin-3-yl)-N-((R)-1,2,3,4-tetrahydronaphthalen-1-yl)-1,2,3,4-tetrahydroisoquinoline-3-carboxamide], for which the IC50 is 9.3 nM in test [1] (setting [3]) and 2.1 nM in test [2] (setting [4]).
